# Assay: log p, n-octanol/water partition coefficient by reverse phase HPLC (H2O/CH3CN)
# Assay type: physicochemical
# Details: n-octanol/water, pH 2.3
row,chromatographic logP,SMILES
1,4.16,CCOC(=O)Oc1ccc(-c2ccccc2)cc1Cl [(2-Chloro-4-phenyl-phenyl) ethyl carbonate]
2,4.04,CCOC(=O)Oc1ccc(-c2ccccc2)cc1C [(2-Methyl-4-phenyl-phenyl) ethyl carbonate]
3,4.76,CCCc1cc(-c2ccccc2)ccc1OC(=O)OCC [(4-phenyl-2-propyl-phenyl) ethyl carbonate]

row,SMILES,chromatographic logP
1,CCc1cc(-c2ccccc2)ccc1OC(C)=O [4-acetoxy-3-ethyl-biphenyl],3.92
2,CCCc1cc(-c2ccccc2)ccc1OC(C)=O [4-acetoxy-3-propyl-biphenyl],4.32

# Same assay, conditions: n-octanol/water, pH 7.5
row,chromatographic logP,SMILES
1,4.65,"CCOC(=O)Oc1c(Cl)cc(-c2ccccc2)cc1Cl [(2,6-dichloro-4-phenyl-phenyl) ethyl carbonate]"

# Same assay, conditions: pH 7.5
row,SMILES,log p
1,CCC(C)Oc1ccc(-c2ccc(C3COC(c4c(F)cccc4F)=N3)cc2)cc1C (centres unmarked) [Example I-7],log p*: 5.60 (pH = 7.5)
2,Cc1cc(-c2ccc(C3COC(c4ccccc4Br)=N3)cc2)ccc1OC(C)C (centres unmarked) [Example I-14],log p: 5.63 (pH = 7.5)
3,CC(C)Oc1ccc(-c2ccc(C3COC(c4ccccc4F)=N3)cc2)cc1Cl (centres unmarked) [Example I-32],log p (pH 7.5): 5.04
4,CC(C)COc1ccc(-c2ccc(C3COC(c4ccccc4Cl)=N3)cc2)cc1Cl (centres unmarked) [Example I-34],log p (pH 7.5): 6.03
5,CCCc1cc(-c2ccc(C3COC(c4ccccc4Br)=N3)cc2)ccc1OC(C)C (centres unmarked) [Example I-40],log p: 6.40 (pH 7.5)
6,CCCc1cc(-c2ccc(C3COC(c4ccccc4C)=N3)cc2)ccc1OC(C)C (centres unmarked) [Example I-52],log p: 6.78 (pH 7.5)
7,C=CCOc1ccc(-c2ccc(C3COC(c4ccccc4C)=N3)cc2)cc1C (centres unmarked) [Example I-55],log p: 5.64 (pH 7.5)
8,CCCc1cc(-c2ccc(C3COC(c4ccccc4I)=N3)cc2)ccc1OC(C)C (centres unmarked) [Example I-57],log p: 6.59 (pH 7.5)
9,CCCc1cc(-c2ccc(C3COC(c4c(F)cccc4F)=N3)cc2)ccc1OCc1ccc(C(C)(C)C)cc1 (centres unmarked) [Example I-60],log p: 7.14 (pH 7.5)
10,CCc1cc(-c2ccc(C3COC(c4c(F)cccc4F)=N3)cc2)ccc1OC(C)C (centres unmarked) [Example I-63],log p: 5.54 (pH 7.5)
11,CCCc1cc(-c2ccc(C3COC(c4ccccc4C)=N3)cc2)ccc1OCC(C)C (centres unmarked) [Example I-64],log p: 4.48 (pH 7.5)
12,Cc1cc(-c2ccc(C3COC(c4ccccc4I)=N3)cc2)ccc1OC(C)C (centres unmarked) [Example I-67],log p: 5.81 (pH 7.5)
13,Cc1cc(-c2ccc(C3COC(c4ccccc4C)=N3)cc2)ccc1OC(C)C (centres unmarked) [Example I-70],log p: 6.02 (pH 7.5)
14,CC(C)Oc1ccc(-c2ccc(C3COC(c4c(F)cccc4Cl)=N3)cc2)cc1Cl (centres unmarked) [Example I-71],log p: 5.25 (pH 7.5)
15,CCC(C)Oc1ccc(-c2ccc(C3COC(c4c(F)cccc4Cl)=N3)cc2)cc1Cl (centres unmarked) [Example I-76],log p: 5.69 (pH 7.5)
16,C=CCOc1ccc(-c2ccc(C3COC(c4c(F)cccc4Cl)=N3)cc2)cc1Cl (centres unmarked) [Example I-80],log p: 4.99 (pH 7.5)
17,CCCc1cc(-c2ccc(C3COC(c4c(F)cccc4Cl)=N3)cc2)ccc1OC(C)C (centres unmarked) [Example I-85],log p: 6.20 (pH 7.5)
18,CCCc1cc(-c2ccc(C3COC(c4c(F)cccc4Cl)=N3)cc2)ccc1OC(C)CC (centres unmarked) [Example I-86],log p: 6.62 (pH 7.5)
19,CCCOc1ccc(-c2ccc(C3COC(c4ccccc4F)=N3)cc2)cc1Cl (centres unmarked) [Example I-87],log p: 5.22 (pH 7.5)
20,CCC(C)Oc1ccc(-c2ccc(C3COC(c4ccccc4F)=N3)cc2)cc1Cl (centres unmarked) [Example I-89],log p: 5.49 (pH 7.5)
21,CC(C)COc1ccc(-c2ccc(C3COC(c4ccccc4F)=N3)cc2)cc1Cl (centres unmarked) [Example I-90],log p: 5.70 (pH 7.5)
22,CCCCCCOc1ccc(-c2ccc(C3COC(c4ccccc4F)=N3)cc2)cc1Cl (centres unmarked) [Example I-96],log p: 6.48 (pH 7.5)
23,CCCc1cc(-c2ccc(C3COC(c4c(F)cccc4Cl)=N3)cc2)ccc1OCC(C)C (centres unmarked) [Example I-104],log p: 6.82 (pH 7.5)

row,SMILES,log p
1,C=CCc1cc(-c2ccc(C3COC(c4c(F)cccc4F)=N3)cc2)cc(CC=C)c1OC(C)CC (centres unmarked) [Example I-139],log p: 6.39
2,C=CCc1cc(-c2ccc(C3COC(c4ccccc4C)=N3)cc2)cc(Cl)c1OC(C)C (centres unmarked) [Example I-146],log p: 6.75 (pH 7.5)
3,C#CCOc1ccc(-c2ccc(C3COC(c4ccccc4C)=N3)cc2)cc1Cl (centres unmarked) [Example I-156],log p: 4.81 (pH 7.5)
4,Cc1cc(-c2ccc(C3COC(c4c(F)cccc4Cl)=N3)cc2)ccc1OC(C)C (centres unmarked) [Example I-163],log p: 5.45
5,C=CCc1cc(-c2ccc(C3COC(c4c(F)cccc4Cl)=N3)cc2)ccc1OCC(C)C (centres unmarked) [Example I-178],log p: 6.47
6,C=CCc1cc(-c2ccc(C3COC(c4c(F)cccc4Cl)=N3)cc2)ccc1OC(C)CC (centres unmarked) [Example I-179],log p: 6.33
7,C=CCOc1ccc(-c2ccc(C3COC(c4c(F)cccc4Cl)=N3)cc2)cc1CC=C (centres unmarked) [Example I-181],log p: 5.49
8,Cc1cc(-c2ccc(C3COC(c4ccccc4F)=N3)cc2)ccc1OC(C)C (centres unmarked) [Example I-190],log p: 5.23
9,Cc1cc(-c2ccc(C3COC(c4ccccc4F)=N3)cc2)ccc1OCC(C)C (centres unmarked) [Example I-191],log p: 5.89
10,C#CC(C)Oc1ccc(-c2ccc(C3COC(c4ccccc4F)=N3)cc2)cc1C (centres unmarked) [Example I-196],log p: 4.68
11,CCCc1cc(-c2ccc(C3COC(c4ccccc4F)=N3)cc2)ccc1OC(C)C (centres unmarked) [Example I-202],log p: 6.03
12,CCCc1cc(-c2ccc(C3COC(c4ccccc4F)=N3)cc2)ccc1OCC(C)C (centres unmarked) [Example I-204],log p: 6.61
13,CCCOc1ccc(-c2ccc(C3COC(c4ccccc4F)=N3)cc2)cc1Cl (centres unmarked) [Example I-216],log p: 5.22
14,CC(C)COc1ccc(-c2ccc(C3COC(c4ccccc4F)=N3)cc2)cc1Cl (centres unmarked) [Example I-217],log p: 5.70
15,CCCCCCOc1ccc(-c2ccc(C3COC(c4ccccc4F)=N3)cc2)cc1Cl (centres unmarked) [Example I-219],log p: 6.48
16,C#CCOc1ccc(-c2ccc(C3COC(c4ccccc4F)=N3)cc2)cc1Cl (centres unmarked) [Example I-221],log p: 4.16
17,C#CC(C)Oc1ccc(-c2ccc(C3COC(c4ccccc4F)=N3)cc2)cc1Cl (centres unmarked) [Example I-222],log p: 4.58
18,CCCc1cc(-c2ccc(C3COC(c4ccccc4Cl)=N3)cc2)ccc1OC(C)C (centres unmarked) [Example I-240],log p: 6.35
19,C=CCc1cc(-c2ccc(C3COC(c4ccccc4Br)=N3)cc2)cc(Cl)c1OC(C)C (centres unmarked) [Example I-281],log p: 6.35
20,C=CCc1cc(-c2ccc(C3COC(c4ccccc4Br)=N3)cc2)cc(Cl)c1OCCCCCC (centres unmarked) [Example I-282],log p: 7.36
21,C=CCOc1c(Cl)cc(-c2ccc(C3COC(c4ccccc4Br)=N3)cc2)cc1CC=C (centres unmarked) [Example I-283],log p: 6.05
22,C#CCOc1c(Cl)cc(-c2ccc(C3COC(c4ccccc4Br)=N3)cc2)cc1CC=C (centres unmarked) [Example I-284],log p: 5.37

# Continued, values first:
row,log p,SMILES
1,log p: 7.28 (pH = 7.5),CCCc1cc(-c2ccc(C3COC(c4ccccc4C)=N3)cc2)ccc1OC(C)CC (centres unmarked) [Example I-9]
2,log p: 6.33 (pH = 7.5),CCCc1cc(-c2ccc(C3COC(c4c(F)cccc4F)=N3)cc2)ccc1OC(C)CC (centres unmarked) [Example I-10]
3,log p: 5.56 (pH = 7.5),Cc1cc(-c2ccc(C3COC(c4ccccc4Cl)=N3)cc2)ccc1OC(C)C (centres unmarked) [Example I-12]
4,log p: 6.12 (pH = 7.5),CCC(C)Oc1ccc(-c2ccc(C3COC(c4ccccc4Br)=N3)cc2)cc1C (centres unmarked) [Example I-16]
5,log p: 6.35 (pH 7.5),CCCc1cc(-c2ccc(C3COC(c4ccccc4Cl)=N3)cc2)ccc1OC(C)C (centres unmarked) [Example I-36]
6,log p: 6.95 (pH 7.5),CCCc1cc(-c2ccc(C3COC(c4ccccc4Cl)=N3)cc2)ccc1OCC(C)C (centres unmarked) [Example I-37]
7,log p: 4.47 (pH 7.5),CCCc1cc(-c2ccc(C3COC(c4ccccc4Cl)=N3)cc2)ccc1OCC(C)O (centres unmarked) [Example I-39]
8,log p: 5.23 (pH 7.5),Cc1cc(-c2ccc(C3COC(c4c(F)cccc4F)=N3)cc2)cc(C)c1OC(C)C (centres unmarked) [Example I-44]
9,log p: 5.95 (pH 7.5),C=CCc1cc(-c2ccc(C3COC(c4c(F)cccc4F)=N3)cc2)ccc1OC(C)CC (centres unmarked) [Example I-59]
10,log p: 5.89 (pH 7.5),CC(C)COc1ccc(-c2ccc(C3COC(c4c(F)cccc4Cl)=N3)cc2)cc1Cl (centres unmarked) [Example I-77]
11,log p: 6.68 (pH 7.5),CCCCCCOc1ccc(-c2ccc(C3COC(c4c(F)cccc4Cl)=N3)cc2)cc1Cl (centres unmarked) [Example I-83]
12,log p: 5.47 (pH 7.5),C=CCOc1ccc(-c2ccc(C3COC(c4ccccc4C)=N3)cc2)cc1Cl (centres unmarked) [Example I-155]
13,log p: 5.93,CCC(C)Oc1ccc(-c2ccc(C3COC(c4c(F)cccc4Cl)=N3)cc2)cc1C (centres unmarked) [Example I-165]
14,log p: 5.98,C=CCc1cc(-c2ccc(C3COC(c4c(F)cccc4Cl)=N3)cc2)ccc1OCCC (centres unmarked) [Example I-176]
15,log p: 5.82,C=CCc1cc(-c2ccc(C3COC(c4c(F)cccc4Cl)=N3)cc2)ccc1OC(C)C (centres unmarked) [Example I-177]
16,log p: 4.81,C#CCOc1ccc(-c2ccc(C3COC(c4c(F)cccc4Cl)=N3)cc2)cc1CC=C (centres unmarked) [Example I-182]
17,log p: 5.70,CCC(C)Oc1ccc(-c2ccc(C3COC(c4ccccc4F)=N3)cc2)cc1C (centres unmarked) [Example I-192]
18,log p: 5.32,C#CC(C)Oc1ccc(-c2ccc(C3COC(c4ccccc4F)=N3)cc2)cc1CCC (centres unmarked) [Example I-209]
19,log p: 5.49,CCC(C)Oc1ccc(-c2ccc(C3COC(c4ccccc4F)=N3)cc2)cc1Cl (centres unmarked) [Example I-218]
20,log p: 5.56,Cc1cc(-c2ccc(C3COC(c4ccccc4Cl)=N3)cc2)ccc1OC(C)C (centres unmarked) [Example I-229]
21,log p: 5.93,C=CCc1cc(-c2ccc(C3COC(c4ccccc4Cl)=N3)cc2)ccc1OC(C)C (centres unmarked) [Example I-250]
22,log p: 6.52,C=CCc1cc(-c2ccc(C3COC(c4ccccc4Cl)=N3)cc2)ccc1OCC(C)C (centres unmarked) [Example I-251]

# Same assay, conditions: pH not given
row,log p,SMILES
1,log p: 6.47,CCCc1cc(-c2ccc(C3COC(c4ccccc4F)=N3)cc2)ccc1OC(C)CC (centres unmarked) [Example I-205]
